Reference: patent US3976695A, “Halogen substituted α-(aminoalkyl)-3,4-dihydroxybenzyl alcohols” (SmithKline Corporation, priority 1970, dated 1976)
In brackets after ≈: the same amount, converted by molar mass.

How the values were obtained:
[1] = system: right atria of the guinea pig; assay: rate of spontaneously beating guinea pig right atria, β-stimulant effect on cardiac muscle; settings: Cavia porcellus, in vitro, read-out: ED25, increasing the rate of contraction of guinea pig right atria
Excerpt: (§1) Two in vitro test systems used for determining selective β-stimulant activity are: (1) effect on spontaneous tone of guinea pig tracheal chain preparations as a measure of β-stimulant (direct relaxant) effect on airway smooth muscle, and (2) effect on rate of spontaneously beating right atria of the guinea pig as a measure if β-stimulant effect on cardiac muscle.

[2] = system: guinea pig tracheal chain preparations; assay: relaxation of spontaneous tone of guinea pig tracheal chain (ring) preparation, β-stimulant effect on airway smooth muscle; settings: for absolute separation ratio: atrial ED25 versus tracheal ED50, in vitro guinea pig preparations
Excerpt: as §1

SMILES	EC25 [1] [ng/mL]	EC50 ([2]; Cavia porcellus, in vitro, guinea pig tracheal ring preparation, read-out: ED50, relaxes the spontaneous tone of guinea pig tracheal ring preparation) [ng/mL]	absolute separation ratio [2]	improvement of absolute separation ratio compared to d, 1-isoproterenol ([2]; versus d, 1-isoproterenol in similar in vitro preparations) [fold]
CC(C)NCC(O)c1ccc(O)c(O)c1Cl (stereo not drawn) [2-chloro-3,4-dihydroxy-α-(isopropylaminomethyl)-benzyl alcohol]	1.6 (≈ 6.51 nM)	0.23 (≈ 0.936 nM)	7	14
CC(C)NCC(O)c1ccc(O)c(O)c1 (centres unmarked) [d, 1-isoproterenol, reference compound]			0.5	
